Measurements: PubChem BioAssay (NCI)
Values joined by “and” are separate entries in the source; they are usually repeats but may differ in a detail not shown here. Equal entries are not always repeated.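 Step 1: Grow cells in 96-well plates. Step 2: Expose to compound for 48 hours at 5 concentrations. Step 3: Interpolate endpoints linearly; if unreached, use highest concentration. Abbreviation: GI50, concentration required for 50% inhibition of growth. TGI marks complete inhibition of growth.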

Key:
Test in all cases: NCI tumour cell line growth inhibition, 48 h
[1] = system: CCRF-CEM leukemia
[2] = system: IGROV1 ovarian
[3] = system: K-562 leukemia
[4] = system: KM12 colon
[5] = system: NCI-H522 lung
[6] = system: SK-MEL-2 melanoma
[7] = system: SK-MEL-28 melanoma
[8] = system: SR leukemia

Structure (SMILES)	TGI [1]	TGI [2]	TGI [3]	TGI [4]	TGI [5]	TGI [6]	TGI [7]	TGI [8]	GI50 [1]	GI50 [2]	GI50 [3]	GI50 [4]	GI50 [5]	GI50 [6]	GI50 [7]	GI50 [8]
CN(C)CC1CCCCCC(Br)C1=O (configuration not stated)	3.15 µM	> 69.4 µM	> 100 µM	41 µM	8.72 µM	54.4 µM	34 µM	7.14 µM	–	–	–	–	–	–	–	–
COc1ccc(-c2nc(-c3ccccn3)c(-c3ccccn3)n2CC(C)C)cc1OC1CCCC1	59.8 µM	> 165 µM	> 165 µM	> 165 µM	81.3 µM	80.2 µM	159 µM	49.2 µM	7.54 µM	11.5 µM	6.37 µM	11.1 µM	31.4 µM	38.4 µM	38.7 µM	7.77 µM
CCSc1ccc([C@@H]2[C@@H](N)C(=O)N2c2cc(OC)c(OC)c(OC)c2)cc1	> 100 µM	> 100 µM	> 100 µM	> 100 µM	0.0966 µM	> 100 µM	> 100 µM	> 100 µM	0.0439 µM	1.43 µM	0.0359 µM	0.0533 µM	0.0238 µM	0.047 µM	3.79 µM	0.0449 µM
Nc1nc(-c2ccc(Cl)cc2)cc(-c2ccc(Cl)cc2)c1-c1nc2ccccc2o1	34.1 µM	34.3 µM	52.3 µM	27.2 µM	30.5 µM	33.4 µM	34.3 µM	30.5 µM	11.4 µM	16.1 µM	13.7 µM	12.2 µM	15 µM	16.6 µM	17.4 µM	14.3 µM
O=C(O)c1cn(C2CC2)c2cc(N3CCNCC3)c(F)cc2c1=O	> 100 µM	> 100 µM	–	> 100 µM	> 100 µM	–	> 100 µM	–	> 100 µM	> 100 µM	–	> 100 µM	> 100 µM	–	> 100 µM	–
COc1ccc(C2=N[C@@H](c3ccc(Cl)cc3)[C@@H](c3ccc(Cl)cc3)N2C(=O)N2CCNC(=O)C2)c(OC(C)C)c1	35.4 µM and 42.7 µM and 50 µM	29.4 µM and 26.2 µM and 26.5 µM	61.6 µM and 53.1 µM and 74.1 µM	32 µM and 30 µM and 30.6 µM	28.5 µM and 27.3 µM and 31.1 µM	30.9 µM and 29 µM and 30.6 µM	30.8 µM and 29.6 µM and 32.2 µM	36.5 µM and 23.9 µM and 17 µM	14.7 µM and 16.8 µM and 18.4 µM	13.1 µM and 6.5 µM and 5.08 µM	16.5 µM and 17.1 µM	15.9 µM	14.6 µM and 13.6 µM and 16.3 µM	16.3 µM and 14.6 µM and 15.9 µM	15.8 µM and 15.3 µM and 16.5 µM	11.7 µM and 2.07 µM and 1.19 µM
CC[C@H]1CN(C)[C@H]2Cc3c([nH]c4ccccc34)C(=O)C[C@H]1C2C(=O)OC (some centres not stated)	> 100 µM	> 100 µM	–	> 100 µM	> 100 µM	> 100 µM	> 100 µM	> 100 µM	–	–	–	–	–	–	–	–
COc1ccc(-c2nnc(SCC(=O)Nc3ccc(C(=O)/C=C/c4cc(OC)c(OC)c(OC)c4)cc3)n2-c2ccccc2)cc1OC	> 10 µM	> 10 µM	> 10 µM	> 10 µM	–	> 10 µM	> 10 µM	> 10 µM	2.84 µM	7.72 µM	4.92 µM	2.38 µM	–	> 10 µM	> 10 µM	0.666 µM
CCOc1cc2c(=O)oc3c(OC)ccc4ccc(c1OC)c2c43	> 100 µM	> 100 µM	> 100 µM	> 100 µM	90.7 µM	> 100 µM	> 100 µM	–	–	–	–	–	–	–	–	–
O=C(Cc1ccc(Nc2ccnc(C(F)(F)F)c2)cc1)Nc1cc(Cl)ccc1O	7.63 µM	30 µM	12 µM	16.9 µM	–	–	18.7 µM	14.9 µM	1.68 µM	6.34 µM	2.96 µM	4.36 µM	–	–	6.06 µM	2.45 µM
COc1cc(-c2nc(-c3ccc(-c4nc5ccc(F)cc5[nH]4)cc3)no2)cc(OC)c1OC	22.3 µM	14.5 µM	–	8.98 µM	8.98 µM	13.4 µM	16 µM	> 100 µM	2.97 µM	3.81 µM	–	3.08 µM	3.04 µM	4.21 µM	3.78 µM	2.98 µM
Fc1cccc(Cl)c1Cn1c(-c2c(F)cccc2Cl)nc2ccccc21	> 100 µM	> 100 µM	> 100 µM	42.4 µM	44.5 µM	–	46.2 µM	–	26.2 µM	21.9 µM	10.1 µM	14.6 µM	13.3 µM	–	20.4 µM	–
COc1ccc(-n2cc(-c3cc(OC)c(OC)c(OC)c3)[nH]c2=S)cc1Cl	> 100 µM	> 100 µM	> 100 µM	> 100 µM	> 100 µM	> 100 µM	> 100 µM	–	0.6 µM	25.6 µM	> 100 µM	> 100 µM	> 100 µM	> 100 µM	63 µM	–
